From patent US10266529B2, “Salts, co-crystals, and polymorphs of an anxiolytic compound” (Bionomics Limited, priority 2013, dated 2019)
Values after ≈ are worked out from the molar mass of the structure shown.

Legend:
Assay type in all cases: physicochemical
[1] = Stability of amorphous material under ambient conditions (re-examination by XRPD)
Excerpt: The amorphous material appears to be stable for at least 5 days under ambient conditions, as it was unchanged after re-examination by XRPD (data not shown).

[2] = Suspension equilibration experiments (thermodynamically stable polymorphic form); conditions: at least in the temperature range from 25° C. to 60° C.
Description: Suspension equilibration experiments in a variety of different solvents and solvent mixtures were carried out at various temperatures.
In addition, the use of high temperatures can help overcome kinetic barriers to polymorphic interconversion.
The experiments at 5° C. were carried out to search for solvated (and additional hydrated) forms of compound 1 since experiments at low temperatures are conducive to solvate and hydrate formation.
The amorphous material was used as the starting material for several suspension equilibration experiments (temperature=5° C., 30° C., 75° C., or 90° C.; duration=1 d, 5 d, or 7 d; solvent=THF, 96:4 acetone/H2O, 98.5/1.5 acetone/H2O, 2-PrOH, or water). Since the amorphous form is in a higher energy state than the crystalline form of the starting material compound 1, potential kinetic barriers might not poses as much of a hindrance for a transformation. The amorphous form of compound 1 was used as starting material for experiments to determine the stability range of compound 1 by equilibration at various water activity levels.
Upon completion of the suspension equilibration experiments, the recovered products were examined by Raman spectroscopy both immediately after filtration and after 30 min of drying under vacuum at room temperature. […]

[3] = DVS (dynamic vapor sorption) isotherm / hygroscopicity
Description: Projekt Messtechnik Sorptions Prüfsystem SPS 11-100n or Surface Measurement Systems DVS-1. The sample was placed on an aluminum or platinum holder on top of a microbalance and allowed to equilibrate for 2 h at 50% r.h. before starting one of two pre-defined humidity programs: • (1) 2 h at 50% r.h.; • (2) 50→0% r.h. […] (5%/h); 5 h at 0% r.h.; and • (4) 0→50% r.h. (5%/h); 2 h at 50% r.h.

[4] = Aqueous solubility determination (2 h equilibration in doubly distilled water, HPLC)
Description: Approximately 0.3 mL of doubly distilled water was added to 3-10 mg of the substance to be measured. The resulting suspension/solution was equilibrated in a temperature-controlled Eppendorf Thermomixer Comfort shaker for 2 h at 25° C. at a shaking rate of 500 rpm. The solid phase was recovered by filter centrifugation (0.10-μm PVDF membrane) and examined by FT-Raman spectroscopy. The pH of the corresponding solution was determined with a Metrohm 713 pH meter. The concentration of the solution was determined by HPLC (see below).
Standard solutions of the SP196-FD-P1 free drug of compound 1 and the L-malate salt of compound 1 (SP196-MLA-P4) were prepared in the concentration range of 0.2-0.05 mg/mL for the construction of a calibration curve.

## CCn1cc(C(=O)N2CCOCC2)c(=O)c2cc(NC3Cc4ccccc4C3)cnc21 [Form A, 1-ethyl-6-(indan-2-ylamino)-3-(morpholine-4-carbonyl)-1,8-naphthyridin-4-one]
[1]
  stability of the amorphous material (unchanged by XRPD): at least 5 days

## CCn1cc(C(=O)N2CCOCC2)c(=O)c2cc(NC3Cc4ccccc4C3)cnc21 [Form C, 1-ethyl-6-(indan-2-ylamino)-3-(morpholine-4-carbonyl)-1,8-naphthyridin-4-one]
[2]
  thermodynamic stability of the polymorph: thermodynamically stable polymorph
[3]; after return from 95% r.h. to 50% r.h.
  DVS final mass above the starting mass: equal to the starting mass
[3]; based on mass gain at 85% r.h.
  hygroscopicity classification: slightly hygroscopic (slightly hygroscopic (mass increase<2% and ≥0.2%))
[3]; decreasing relative humidity from 50% r.h. to 0%
  DVS reversible mass loss: ~0.3 wt %
[3]; from 50% to 85% r.h.
  DVS mass increase: ~0.2 wt %
[3]; increasing relative humidity from 50% r.h. to 95% r.h.
  DVS (total) mass increase: ~0.6 wt %
[3]; solid form after DVS cycle
  FT-Raman spectrum of the material after the DVS measurement: corresponds to the spectrum of the material before the DVS measurement
[4]; after 2 h equilibration at 25° C. in water
  FT-Raman spectrum of the solid residue after aqueous solubility determination: unchanged
[4]; doubly distilled water, 25 °C, pH 7.5, water, thermodynamic from solid, after 2 h equilibration at 25° C., pH=7.5 of saturated solution
  solubility at 2 h: ~40 µg/mL (≈ 95.6 µM)

## CCn1cc(C(=O)N2CCOCC2)c(=O)c2cc(NC3Cc4ccccc4C3)cnc21 [Form D, 1-ethyl-6-(indan-2-ylamino)-3-(morpholine-4-carbonyl)-1,8-naphthyridin-4-one]
[2]
  thermodynamic stability of the polymorph: thermodynamically less stable than Form C
